The structures appear in SMILES notation.

For the assay, the system named is HSF1 pathway (HSP72 expression) in SK-OV-3 cells. The experiment in a line: Cell-based ELISA (Cellisa) assay: HSP72 induction by 17-AAG in SK-OV-3 cells. The settings on record: Homo sapiens, compound 1 h before 17-AAG (250 nM), then 18 h, HSP72 antibody, europium counts normalised to protein, 50% inhibitory concentration, read-out: SKOV3 Cellisa. The procedure:
U2OS cells (5-8×10^4 cells/mL) or SK-OV-3 cells (5-8×10^4 cells/mL) were seeded into 96-well plates and incubated at 37° C. for 48 h. […] Cells were then incubated for 18 h. The medium was removed washed 2× with PBS and cells were then fixed with fixing solution (4% paraformaldehyde, 0.3% TritonX-100 in PBS) for 30 min at 4° C. The plates were then washed 2× with PBS before blocking with 5% milk for 30 min at 37° C. After washing the plates 4× with 0.1% Tween-20/deionised water, HSP72 antibody (SPA-810, Enzo Life) was added for 1.5 h at 37° C. Following 4× washes, the plates were incubated with europium-labelled anti-mouse antibody (0.6 ug/ml) in Delfia assay buffer (Perkin Elmer) for 1 h at 37° C. After washing the plates, Delfia enhancement solution was added, shaken for 10 min before reading in the Envision plate reader (Perkin-Elmer) with excitation at 340 nm and emission at 615 nm. The plates were washed again before protein determination using the bicinchoninic acid assay (BCA assay, Pierce Biotechnology). The europium counts were normalised for the amount of protein in each well. The 50% inhibitory concentration value of the compound was then calculated.
`Cc1ccc2cc(C(=O)Nc3cc(NC(=O)c4ccc5c(c4)OCC5)ccc3C)ccc2n1` [Example 9, N-(5-(2,3-Dihydrobenzofuran-6-carboxamido)-2-methylphenyl)-2-methylquinoline-6-carboxamide]: the IC50 was found to be 170 nM.

In the case of `CCN1CCN(Cc2ccc3cc(C(=O)Nc4cc(NC(=O)c5ccc6c(c5)OCC6)ccc4F)ccc3n2)CC1` [Example 17, N-(5-(2,3-Dihydrobenzofuran-6-carboxamido)-2-fluorophenyl)-2-((4-ethylpiperazin-1-yl)methyl)quinoline-6-carboxamide], the IC50 was 780 nM.

In the case of `Cc1ccc2cc(C(=O)Nc3cc(NC(=O)c4ccc5c(c4)CC(C)O5)ccc3C)ccc2n1` (racemic) [Example 5, (rac)-2-Methyl-N-(2-methyl-5-(2-methyl-2,3-dihydrobenzofuran-5-carboxamido)phenyl)quinoline-6-carboxamide], the IC50 stood at 2900 nM.

As to `Cc1ccc2cc(C(=O)Nc3cc(NC(=O)c4ccc5c(c4)OC(C)CO5)ccc3C)ccc2n1` (racemic) [Example 3, (rac)-2-Methyl-N-(2-methyl-5-(3-methyl-2,3-dihydrobenzo[b][1,4]dioxine-6-carboxamido)phenyl)quinoline-6-carboxamide], the IC50 is 4100 nM.

For `Cc1ccc2cc(C(=O)Nc3cc(NC(=O)c4ccc5ccoc5c4)ccc3C)ccc2n1` [Example 11, N-(5-(benzofuran-6-carboxamido)-2-methylphenyl)-2-methylquinoline-6-carboxamide], the IC50 came to 880 nM.

On to `Cc1ccc2cc(C(=O)Nc3cc(NC(=O)c4ccc5c(c4)OCC5)ccc3F)ccc2n1` [Example 13, N-(5-(2,3-Dihydrobenzofuran-6-carboxamido)-2-fluorophenyl)-2-methylquinoline-6-carboxamide], for which the IC50 was determined as 1800 nM.

For `CCN1CCN(Cc2ccc3cc(C(=O)Nc4cc(NC(=O)c5ccc6c(c5)OCC6)ccc4Cl)ccc3n2)CC1` [Example 18, N-(2-Chloro-5-(2,3-dihydrobenzofuran-6-carboxamido)phenyl)-2-((4-ethylpiperazin-1-yl)methyl)quinoline-6-carboxamide], the IC50 came to 640 nM.

For `Cc1ccc2cc(C(=O)Nc3cc(NC(=O)c4ccc5c(c4)CCO5)ccc3C)ccc2n1` [Example 10, N-(5-(2,3-dihydrobenzofuran-5-carboxamido)-2-methylphenyl)-2-methylquinoline-6-carboxamide], the IC50 was 1800 nM.

In the case of `O=C(Nc1ccc(F)c(NC(=O)c2ccc3nc(CN4CCC4)ccc3c2)c1)c1ccc2c(c1)OCC2` [Example 19, 2-(Azetidin-1-ylmethyl)-N-(5-(2,3-dihydrobenzofuran-6-carboxamido)-2-fluorophenyl)quinoline-6-carboxamide], the IC50 was found to be 3100 nM.

On to `CCN1CCN(Cc2ccc3cc(C(=O)Nc4cc(NC(=O)c5ccc6c(c5)OCC6)ccc4C)ccc3n2)CC1` [Example 16, N-(5-(2,3-Dihydrobenzofuran-6-carboxamido)-2-methylphenyl)-2-((4-ethylpiperazin-1-yl)methyl)quinoline-6-carboxamide], for which the IC50 is 120 nM.

As for `Cc1ccc2cc(C(=O)Nc3cc(NC(=O)c4ccc5c(c4)OCCC5)ccc3F)ccc2n1` [Example 6, N-(5-(Chroman-7-carboxamido)-2-fluorophenyl)-2-methylquinoline-6-carboxamide], the IC50 was 2700 nM.

Take `Cc1ccc2cc(C(=O)Nc3cc(NC(=O)c4ccc5c(c4)OCO5)ccc3C)ccc2n1` [Example 8, N-(5-(Benzo[d][1,3]dioxole-5-carboxamido)-2-methylphenyl)-2-methylquinoline-6-carboxamide]: the IC50 was determined as 130 nM.

Consider `Cc1ccc2cc(C(=O)Nc3cc(NC(=O)c4ccc5c(c4)OCCCO5)ccc3C)ccc2n1` [Example 12, N-(5-(3,4-dihydro-2H-benzo[b][1,4]dioxepine-7-carboxamido)-2-methylphenyl)-2-methylquinoline-6-carboxamide], for which the IC50 turned out to be 670 nM.

Consider `O=C(Nc1ccc(Cl)c(NC(=O)c2ccc3nc(CN4CCC4)ccc3c2)c1)c1ccc2c(c1)OCC2` [Example 21], for which the IC50 was 1800 nM.

For `Cc1ccc2cc(C(=O)Nc3cc(NC(=O)c4ccc5c(c4)OC(C)CO5)ccc3F)ccc2n1` (centres unmarked) [Example 4, N-(2-Fluoro-5-(3-methyl-2,3-dihydrobenzo[b][1,4]dioxine-6-carboxamido)phenyl)-2-methylquinoline-6-carboxamide], the IC50 amounted to 8800 nM.

Regarding `Cc1ccc2cc(C(=O)Nc3cc(NC(=O)c4ccc5c(c4)OCCC5)ccc3Cl)ccc2n1` [Example 7, N-(2-Chloro-5-(chroman-7-carboxamido)phenyl)-2-methylquinoline-6-carboxamide], the IC50 was found to be 1500 nM.

Take `O=C(Nc1ccc(Cl)c(NC(=O)c2ccc3nc(CN4CCC4)ccc3c2)c1)c1ccc2c(c1)OCCC2` [Example 20, 2-(Azetidin-1-ylmethyl)-N-(2-chloro-5-(chroman-7-carboxamido)phenyl)quinoline-6-carboxamide]: the IC50 is 3800 nM.

For the compound `CCN1CCN(Cc2ccc3cc(C(=O)Nc4cc(NC(=O)c5ccc6c(c5)OCCC6)ccc4F)ccc3n2)CC1` [Example 15, N-(5-(Chroman-7-carboxamido)-2-fluorophenyl)-2-((4-ethylpiperazin-1-yl)methyl)quinoline-6-carboxamide], the IC50 turned out to be 1000 nM.

`Cc1ccc2cc(C(=O)Nc3cc(NC(=O)c4ccc5c(c4)OCC5)ccc3Cl)ccc2n1` [Example 14, N-(2-Chloro-5-(2,3-dihydrobenzofuran-6-carboxamido)phenyl)-2-methylquinoline-6-carboxamide]: the IC50 stood at 2100 nM.

As for `Cc1ccc2cc(C(=O)Nc3cc(NC(=O)c4ccc5c(c4)OC(C)C5)ccc3C)ccc2n1` (racemic) [Example 2, (rac)-2-Methyl-N-(2-methyl-5-(2-methyl-2,3-dihydrobenzofuran-6-carboxamido)phenyl)quinoline-6-carboxamide], the IC50 was determined as 3400 nM.

The record behind these values is patent US10647678B2 (Cancer Research Technology Limited, priority 2015, dated 2020).
